Experimental data taken from patent US20050238706A1, “Pharmaceutically active lipid based formulation of SN-38” (NeoPharm, Inc., priority 2002, published 2005).

How the values were obtained:
[1] = system: P388 murine leukemia tumor cells; experiment: Therapeutic efficacy in P388 tumor bearing CD2F1 mice; format: in vivo, mouse; settings: for 60-day % Survival: n = 10
Text: (§1) Either female CD2F1 (6-8 weeks old) mice or female C.B-17 SCID mice (4-6 weeks old) were obtained from the vendor and maintained as described previously. The CD2F1 mice were transplanted with P388 murine leukemia tumor cells, whereas the SCID mice were transplanted with HT-29 human colon cancer cells, Capan-1 human pancreatic cancer cells and MX-1 human breast cancer cells. After a suitable waiting period (waiting period varied based on the tumor models), each mouse received intravenous injection via tail vein of placebo liposomes, LE-SN38 or CPT-11 at pre-determined dose levels.

[2] = system: HT-29 human colon cancer cells; experiment: Therapeutic efficacy in HT-29 xenograft, SCID mice; format: in vivo; settings: 8 mg/kg × 5, iv, day 28 post treatment, n = 5
Text: as §1

[3] = system: Capan-1 human pancreatic cancer cells; experiment: Therapeutic efficacy in Capan-1 xenograft, SCID mice; format: in vivo; settings: day 28 post treatment, n = 5
Text: as §1

[4] = system: topoisomerase I purified from human and rodent tumor cell lines; settings: enzyme purified from human and rodent tumor cell lines; cited from earlier work
[5] = cited from earlier work

| SMILES | median survival time ([1]; 4 mg/kg for 5 consecutive days) [days] | 60-day % Survival ([1]; 4 mg/kg × 5, iv) [%] | median survival time ([1]; 8 mg/kg for 5 consecutive days) [days] | 60-day % Survival ([1]; 8 mg/kg × 5, iv) [%] | median survival time ([1]; 16 mg/kg for 5 consecutive days) [days] | % Growth Inhibition [2] [%] | % Growth Inhibition ([3]; 8 mg/kg × 5, iv) [%] | % Growth Inhibition ([3]; 16 mg/kg × 5, iv) [%] | potency as an inhibitor of topoisomerase I relative to irinotecan [4] | solubility in aqueous solutions [5] |
| --- | --- | --- | --- | --- | --- | --- | --- | --- | --- | --- |
| CCc1c2c(nc3ccc(OC(=O)N4CCC(N5CCCCC5)CC4)cc13)-c1cc3c(c(=O)n1C2)COC(=O)[C@]3(O)CC [CPT-11, irinotecan] | 16 | 0 | 20 | 0 | 22 | 36 | 47.8 | 68.7 | – | – |
| CCc1c2c(nc3ccc(O)cc13)-c1cc3c(c(=O)n1C2)COC(=O)[C@]3(O)CC [SN38, (+)-(4S)-4,11-diethyl-4,9-dihydroxy-1H-pyrano[3′,4′:6,7]-indolizino[1,2-b]quinoline-3,14(4H,12H)-dione] | – | – | – | – | – | – | – | – | approximately 1000 times | exceedingly insoluble |
